Active and inactive are the calls of the source.
How the values were obtained:
Major prion protein = Major prion protein (Homo sapiens, UniProt P04156); format: functional, cell-based
cells [1] = assay: cells
cells [2] = format: functional, cell-based
cells [3] = format: functional, cell-based; remark: listed apart in the source
[4] = target: T1, Trace amine-associated receptor 1 (Homo sapiens, UniProt Q96RJ0); assay: Counterscreen for agonists of the human trace amine associated receptor 1 (hTAAR1): Fluorescence-based cell-based high throughput dose response assay to identify hTAAR1 agonist that also desensitize TAAR1 receptor response.; format: functional
[5] = target: T1, Trace amine-associated receptor 1; assay: Fluorescence-based cell-based high throughput dose response assay to identify agonists of the human trace amine associated receptor 1 (TAAR1).; format: functional
[6] = Luminescence Cell-Based Dose Retest to Confirm Inhibitors of Cancer Stem Cells. [Related pubchem assays (depositor defined):AID2717, AID2721]; format: functional; details: Homo sapiens
[7] = target: T2, Microphthalmia-associated transcription factor (Homo sapiens, UniProt O75030); assay: TRPM1 promoter luciferase signal decrease, dose response, MITF inhibitor project, cell-based, SK-MEL-5, cherry-picked, set 3 (AID 493073); format: functional
T2 sequence (O75030 whole entry): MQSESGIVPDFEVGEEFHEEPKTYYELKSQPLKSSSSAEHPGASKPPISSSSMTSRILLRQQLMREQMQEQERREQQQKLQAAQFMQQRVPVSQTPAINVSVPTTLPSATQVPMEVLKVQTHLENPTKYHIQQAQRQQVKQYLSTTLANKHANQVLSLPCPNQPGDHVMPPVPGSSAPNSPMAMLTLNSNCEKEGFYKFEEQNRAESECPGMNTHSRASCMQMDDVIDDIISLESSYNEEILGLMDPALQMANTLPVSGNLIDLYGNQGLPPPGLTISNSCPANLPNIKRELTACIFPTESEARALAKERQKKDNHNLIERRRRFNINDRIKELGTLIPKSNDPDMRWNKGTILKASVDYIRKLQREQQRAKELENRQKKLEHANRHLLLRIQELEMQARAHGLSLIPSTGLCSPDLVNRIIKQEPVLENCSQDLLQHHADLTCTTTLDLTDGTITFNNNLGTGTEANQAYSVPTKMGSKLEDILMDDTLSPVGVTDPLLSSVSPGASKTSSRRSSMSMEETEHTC

[8] = control 3'UTR Renilla luciferase suppression, dose response, counter-screen for Shn3 inhibitor project, cell-based, Clone20-Shn3RL, cherry-picked (AID 624133); format: functional
Paired box protein Pax-8 = Paired box protein Pax-8 (Homo sapiens, UniProt Q06710); assay: inhibitors of PAX8-driven TPO luciferase reporter, dose response, RMG-I cells, cherry-pick (AID 687027); format: functional, cell-based;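 note: luciferase reporter driven by Pax8 target thyroperoxidase promoter measured by SteadyGlo luminescence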
Beta Lactamase = Beta Lactamase (Pseudomonas aeruginosa, UniProt Q932Y6); assay: beta-lactamase reporter inhibitor potency, dose response, artefact control for TLR9-MyD88 binding inhibitor project, BLA reporter cells, FRET fluorescence (AID 588341); format: cell-based;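 note: cell based assay in CHO-K1 cells stably expressing beta-lactamase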
A-375 [9] = assay: MITF: Counter assay: A375 proliferation Measured in Cell-Based System Using Plate Reader - 2084-03_Inhibitor_Dose_DryPowder_Activity. [Related pubchem assays (depositor defined):AID488944]; format: functional; details: Homo sapiens
[10] = target: Type-1 angiotensin II receptor (Homo sapiens, UniProt P30556); assay: AT1 receptor antagonists, dose response, selectivity assay for APJ receptor antagonist project, cell-based, uHTS hits (AID 463214); format: functional;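 note: antagonist potency against angiotensin II stimulated AT1 response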
[11] = Shn3 3'UTR reporter inhibitors, dose response, cell-based, Clone20 osteoblasts, firefly luciferase, cherry-picked (AID 624132); format: functional;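 note: firefly luciferase luminescence from reporter carrying the Shn3 3'UTR in osteoblasts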
Beta-galactosidase [12] = target: T3, Beta-galactosidase (Escherichia coli, UniProt Q8VNN2); assay: PubChem AID 485352; format: functional
CHO = assay: cytotoxicity in TLR9-MyD88 CHO cells, dose response, cytotoxicity control for TLR9-MyD88 binding inhibitor project, cell-based, luminescence (AID 588339); format: functional, hamster; details: Cricetulus griseus;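 note: CHO cells stably coexpressing TLR9 and MyD88 fusions from primary screen; compound exposure lasted 48 hours before viability readout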
Fatty acid synthase [13] = target: T4, Fatty acid synthase (Homo sapiens, UniProt P49327); assay: FAS thioesterase domain inhibitors, dose response, biochemical, endpoint fluorescence intensity, uHTS hits (AID 624327); format: functional;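 note: fluorescence from hydrolysis of an O-methyl fluorescein acyl ester substrate by the enzyme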
[14] = target: ATP-binding cassette sub-family B member 6 (Homo sapiens, UniProt Q9NP58); assay: ABCB6 transporter inhibitors, dose response, K562-ABCB6 cells, flow cytometry, cherry pick 1 (AID 623955); format: functional; details: read-out: EC50_MICROM
[15] = HepG2 cell cytotoxicity, dose response, cytotoxicity control for Shn3 inhibitor project, CellTiter-Glo, cherry-picked (AID 624134); format: functional, cell-based
Fatty acid synthase [16] = target: T4, Fatty acid synthase; assay: FAS thioesterase domain inhibitors, dose response, biochemical, kinetic fluorescence intensity (AID 624326); format: functional;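 note: rate of fluorescence rise from hydrolysis of a fluorogenic O-methyl fluorescein ester substrate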
[17] = target: Heat shock protein HSP 90-alpha (Homo sapiens, UniProt P07900); format: functional, organism-based
A-375 [18] = assay: A375 melanoma cell viability reduction, dose response, counter-screen for MITF modulator project, cherry-pick samples, set 2 (AID 540335); format: functional, cell-based; details: Homo sapiens
Interleukin-8 = Interleukin-8 (Homo sapiens, UniProt P10145); assay: Dose Response confirmation of uHTS small molecule hits for cystic fibrosis induced NFkb Inhibitors in a PAF-induced IL8 counterscreen.; format: functional; details: read-out: IC50_Mean
Beta-galactosidase [19] = target: T3, Beta-galactosidase; assay: Dose response counterscreen for EBI2 assay utilizing the enzyme, b-galactosidase.; format: functional
INS1 = assay: beta cell apoptosis inhibitors, cytokine rescue, dose response, luminescence, retest (AID 449756); format: functional, cell-based; details: Rattus norvegicus;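 note: cell death triggered by IL-1 beta plus TNF-alpha plus IFN-gamma mixture; protective hits raise ATP signal compared with cytokine alone wells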
[20] = LMP1-driven NF-kB reporter inhibition, dose response, cell-based, luciferase reporter, luminescence, dry powder, set 2 (AID 624376); format: functional
[21] = HEK293 cell viability, dose response, counter-screen for EBV LMP1 inhibitor project, dry powder, set 2 (AID 624374); format: functional
[22] = AlphaScreen signal interference compounds, dose response, artefact control for ARNT-TACC3 interaction inhibitor project, biochemical, luminescence, cherry-pick (AID 651705); format: functional;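 note: AlphaScreen bead proximity signal that flags compounds interfering with the detection technology; potency reflects signal decrease which marks the compound as an assay artifact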
[23] = target: Photoreceptor-specific nuclear receptor (Homo sapiens, UniProt Q9Y5X4); format: functional, cell-based;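 note: CHO-S cells with Gal4-NCOR and VP16-NR2E3 two-hybrid luciferase reporter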
cells [24] = format: functional
Nonstructural protein 1 = Nonstructural protein 1 (Influenza A virus, UniProt Q194T2); format: functional, Influenza A virus (A/California/07/2009(H1N1))
[25] = target: Matrix metalloproteinase-14 (Homo sapiens, UniProt P50281); assay: Dose Response confirmation of uHTS hits for a small molecule inhibitors of MT1-MMP activation in a fluorescence assay set 1.; format: functional
[26] = THP-1 cell cytotoxicity, dose response, cytotoxicity control for non-replicating M. tuberculosis project (AID 489025); format: functional

T1 sequence (Q96RJ0 whole entry): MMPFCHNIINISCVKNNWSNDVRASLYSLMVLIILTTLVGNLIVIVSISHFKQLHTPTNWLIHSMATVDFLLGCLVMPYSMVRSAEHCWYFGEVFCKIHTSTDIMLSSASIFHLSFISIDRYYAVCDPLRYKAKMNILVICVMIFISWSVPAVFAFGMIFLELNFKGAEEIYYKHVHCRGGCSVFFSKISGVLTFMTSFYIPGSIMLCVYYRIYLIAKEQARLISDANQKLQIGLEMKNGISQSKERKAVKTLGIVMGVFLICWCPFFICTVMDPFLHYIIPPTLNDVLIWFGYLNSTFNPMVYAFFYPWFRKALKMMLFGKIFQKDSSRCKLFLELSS
T4 sequence (P49327 whole entry, the tested form may be a part): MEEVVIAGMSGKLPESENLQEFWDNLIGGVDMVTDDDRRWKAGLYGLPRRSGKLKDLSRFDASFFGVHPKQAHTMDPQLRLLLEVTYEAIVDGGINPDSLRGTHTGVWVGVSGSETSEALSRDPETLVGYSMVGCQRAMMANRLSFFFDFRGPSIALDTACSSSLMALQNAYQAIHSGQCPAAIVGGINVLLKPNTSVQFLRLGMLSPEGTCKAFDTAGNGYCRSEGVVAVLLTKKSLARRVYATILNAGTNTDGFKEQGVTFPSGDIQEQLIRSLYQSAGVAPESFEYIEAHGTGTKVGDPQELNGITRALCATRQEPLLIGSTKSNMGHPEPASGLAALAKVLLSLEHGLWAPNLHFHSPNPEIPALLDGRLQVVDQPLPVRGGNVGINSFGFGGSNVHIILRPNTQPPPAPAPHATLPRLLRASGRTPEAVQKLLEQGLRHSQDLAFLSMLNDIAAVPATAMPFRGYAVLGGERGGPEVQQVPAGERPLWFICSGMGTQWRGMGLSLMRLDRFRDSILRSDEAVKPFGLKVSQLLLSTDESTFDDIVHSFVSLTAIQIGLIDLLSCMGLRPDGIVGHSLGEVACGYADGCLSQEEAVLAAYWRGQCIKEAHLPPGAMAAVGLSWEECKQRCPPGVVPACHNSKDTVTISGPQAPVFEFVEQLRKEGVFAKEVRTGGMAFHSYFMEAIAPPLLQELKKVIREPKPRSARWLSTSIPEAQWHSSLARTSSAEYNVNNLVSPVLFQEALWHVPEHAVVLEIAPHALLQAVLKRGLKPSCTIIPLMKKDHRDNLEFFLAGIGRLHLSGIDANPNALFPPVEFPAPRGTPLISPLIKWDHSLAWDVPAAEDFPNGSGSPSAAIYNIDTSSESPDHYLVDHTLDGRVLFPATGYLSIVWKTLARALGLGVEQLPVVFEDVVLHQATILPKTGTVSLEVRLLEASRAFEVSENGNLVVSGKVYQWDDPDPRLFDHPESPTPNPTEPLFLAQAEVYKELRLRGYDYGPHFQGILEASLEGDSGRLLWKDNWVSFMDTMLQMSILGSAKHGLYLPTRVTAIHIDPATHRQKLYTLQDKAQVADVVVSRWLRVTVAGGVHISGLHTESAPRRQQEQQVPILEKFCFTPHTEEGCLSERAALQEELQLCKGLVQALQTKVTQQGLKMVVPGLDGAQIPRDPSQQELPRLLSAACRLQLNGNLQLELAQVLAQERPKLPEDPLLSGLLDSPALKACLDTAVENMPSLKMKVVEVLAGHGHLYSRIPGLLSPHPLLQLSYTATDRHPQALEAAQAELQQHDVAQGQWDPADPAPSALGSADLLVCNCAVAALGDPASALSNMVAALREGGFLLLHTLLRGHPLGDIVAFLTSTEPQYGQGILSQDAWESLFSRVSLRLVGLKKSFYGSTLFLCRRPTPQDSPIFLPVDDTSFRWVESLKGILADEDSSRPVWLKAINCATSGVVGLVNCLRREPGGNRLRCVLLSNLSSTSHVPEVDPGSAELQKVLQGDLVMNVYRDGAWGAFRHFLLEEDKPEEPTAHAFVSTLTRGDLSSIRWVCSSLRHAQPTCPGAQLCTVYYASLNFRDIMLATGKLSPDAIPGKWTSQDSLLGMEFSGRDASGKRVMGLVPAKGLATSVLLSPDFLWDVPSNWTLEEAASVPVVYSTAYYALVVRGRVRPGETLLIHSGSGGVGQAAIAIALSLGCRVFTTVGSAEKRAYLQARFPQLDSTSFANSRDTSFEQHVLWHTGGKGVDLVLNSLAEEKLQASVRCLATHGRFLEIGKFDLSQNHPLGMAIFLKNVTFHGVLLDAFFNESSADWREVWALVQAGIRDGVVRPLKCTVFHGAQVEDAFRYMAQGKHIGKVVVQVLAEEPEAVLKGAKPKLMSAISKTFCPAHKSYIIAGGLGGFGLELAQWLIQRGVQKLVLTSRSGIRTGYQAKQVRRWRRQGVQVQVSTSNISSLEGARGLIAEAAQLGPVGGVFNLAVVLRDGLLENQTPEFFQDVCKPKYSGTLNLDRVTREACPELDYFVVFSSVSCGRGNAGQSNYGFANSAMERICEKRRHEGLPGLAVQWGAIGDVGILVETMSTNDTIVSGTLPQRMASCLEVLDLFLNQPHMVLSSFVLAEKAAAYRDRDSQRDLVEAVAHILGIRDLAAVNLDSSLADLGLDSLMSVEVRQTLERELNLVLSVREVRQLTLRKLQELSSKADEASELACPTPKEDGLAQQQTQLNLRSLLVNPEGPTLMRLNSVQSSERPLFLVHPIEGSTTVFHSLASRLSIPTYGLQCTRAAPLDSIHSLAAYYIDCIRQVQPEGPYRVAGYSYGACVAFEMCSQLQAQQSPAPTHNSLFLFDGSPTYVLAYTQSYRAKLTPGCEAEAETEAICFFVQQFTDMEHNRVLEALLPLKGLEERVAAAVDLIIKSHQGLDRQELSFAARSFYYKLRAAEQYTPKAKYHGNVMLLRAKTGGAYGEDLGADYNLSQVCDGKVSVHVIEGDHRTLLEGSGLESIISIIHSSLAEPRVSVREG
T3 sequence (Q8VNN2 whole entry, the tested form may be a part): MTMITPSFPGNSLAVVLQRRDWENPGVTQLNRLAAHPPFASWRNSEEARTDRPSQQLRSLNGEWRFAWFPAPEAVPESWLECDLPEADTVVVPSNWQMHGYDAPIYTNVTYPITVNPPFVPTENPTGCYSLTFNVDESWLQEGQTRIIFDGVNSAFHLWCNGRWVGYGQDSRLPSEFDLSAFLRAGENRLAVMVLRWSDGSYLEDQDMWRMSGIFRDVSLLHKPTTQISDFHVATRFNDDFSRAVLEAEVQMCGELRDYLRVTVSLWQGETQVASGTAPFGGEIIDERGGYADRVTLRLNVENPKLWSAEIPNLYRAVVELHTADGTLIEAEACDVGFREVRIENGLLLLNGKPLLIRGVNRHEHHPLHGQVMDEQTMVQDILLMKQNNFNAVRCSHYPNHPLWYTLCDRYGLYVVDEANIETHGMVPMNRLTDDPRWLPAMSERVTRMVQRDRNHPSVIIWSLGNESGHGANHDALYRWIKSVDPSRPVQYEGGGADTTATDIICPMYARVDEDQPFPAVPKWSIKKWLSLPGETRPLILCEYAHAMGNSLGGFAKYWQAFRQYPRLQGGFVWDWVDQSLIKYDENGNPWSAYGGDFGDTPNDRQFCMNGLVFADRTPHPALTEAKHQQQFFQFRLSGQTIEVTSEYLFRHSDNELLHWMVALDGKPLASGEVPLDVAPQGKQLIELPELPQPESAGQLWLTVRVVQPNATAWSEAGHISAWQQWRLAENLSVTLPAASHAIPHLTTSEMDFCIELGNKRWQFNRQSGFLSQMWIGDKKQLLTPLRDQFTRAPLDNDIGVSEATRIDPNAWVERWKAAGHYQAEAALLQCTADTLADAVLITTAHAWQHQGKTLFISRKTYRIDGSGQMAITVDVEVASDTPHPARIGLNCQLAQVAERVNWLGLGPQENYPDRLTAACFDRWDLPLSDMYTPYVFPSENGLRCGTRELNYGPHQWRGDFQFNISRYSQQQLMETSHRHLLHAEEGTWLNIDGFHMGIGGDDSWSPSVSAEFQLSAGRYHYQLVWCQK
Interleukin-8, sequence (P10145 whole entry): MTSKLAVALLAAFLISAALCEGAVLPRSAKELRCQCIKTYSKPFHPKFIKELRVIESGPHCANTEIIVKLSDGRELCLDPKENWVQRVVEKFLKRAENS
Type-1 angiotensin II receptor, sequence (P30556 whole entry): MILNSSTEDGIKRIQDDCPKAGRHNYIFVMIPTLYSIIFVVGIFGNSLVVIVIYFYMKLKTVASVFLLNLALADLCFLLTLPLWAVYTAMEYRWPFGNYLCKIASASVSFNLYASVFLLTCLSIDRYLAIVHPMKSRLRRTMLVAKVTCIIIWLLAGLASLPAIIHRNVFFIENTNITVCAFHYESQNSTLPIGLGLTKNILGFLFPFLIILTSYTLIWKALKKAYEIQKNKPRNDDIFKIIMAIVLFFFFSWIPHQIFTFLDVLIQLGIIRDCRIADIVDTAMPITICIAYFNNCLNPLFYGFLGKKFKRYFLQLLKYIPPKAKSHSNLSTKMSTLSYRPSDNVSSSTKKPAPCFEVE
Nonstructural protein 1, sequence (Q194T2 whole entry): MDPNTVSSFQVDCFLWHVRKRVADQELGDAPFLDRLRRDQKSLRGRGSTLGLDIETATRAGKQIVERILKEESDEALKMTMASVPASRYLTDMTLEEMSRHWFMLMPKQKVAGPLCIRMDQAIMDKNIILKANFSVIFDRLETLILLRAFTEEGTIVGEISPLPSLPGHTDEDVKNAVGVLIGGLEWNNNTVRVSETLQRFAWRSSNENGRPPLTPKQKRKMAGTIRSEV
Beta Lactamase, sequence (Q932Y6 whole entry): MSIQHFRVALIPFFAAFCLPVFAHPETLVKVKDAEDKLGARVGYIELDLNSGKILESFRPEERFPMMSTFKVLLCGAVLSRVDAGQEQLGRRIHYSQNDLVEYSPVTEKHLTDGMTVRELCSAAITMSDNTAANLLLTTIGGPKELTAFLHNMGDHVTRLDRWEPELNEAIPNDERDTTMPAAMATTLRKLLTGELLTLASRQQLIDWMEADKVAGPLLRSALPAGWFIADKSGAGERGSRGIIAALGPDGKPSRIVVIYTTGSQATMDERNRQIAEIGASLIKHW

CN(C)S(=O)(=O)c1ccc(N2CCCC2)c(C(=O)Nc2nc3ccccc3s2)c1
IC50 (Major prion protein): 10.4 µM (inactive) | IC50 (cells [1]): > 138 µM (inactive)

CC(=NCCc1ccc(O)cc1)C1=C(O)OCC1
EC50 (cells [2]): > 29.9 µM (inactive) | IC50 (cells [3]): > 29.9 µM (inactive) | IC50 [4]: 9.27 µM (active) | EC50 [5]: 2.05 µM (active)

O=C(Nc1ccc(F)cc1)c1nc(S(=O)(=O)Cc2ccccc2)ncc1Cl
AC50 [6]: 1.63 µM (active) | AC50 [7]: 9.45 µM (active) | AC50 [8]: 6.61 µM (active) | AC50 (Paired box protein Pax-8): 10.4 µM (active) | IC50 (Beta Lactamase): 5.43 µM (active) | AC50 (A-375 [9]): > 11 µM (active) | IC50 [10]: 11.8 µM (active) | AC50 [11]: 3.38 µM (active) | EC50 (Beta-galactosidase [12]): > 40 µM (inactive) | IC50 (CHO): 2.79 µM (active) | IC50 (Fatty acid synthase [13]): 13.4 µM (active) | EC50 [14]: 62.8 µM (active) | AC50 [15]: 22.6 µM (active) | IC50 (Fatty acid synthase [16]): 8.67 µM (active) | AC50 [17]: 3.46 µM (active) | AC50 (A-375 [18]): > 11 µM (active)

CC(=O)c1c(C)n(-c2ccc(C)cc2C)c2ccc(O)cc12
IC50 (Interleukin-8): > 79 µM (inactive)

COc1cc(-c2nc3ccc(C)cn3c2NCc2ccccc2)ccc1-c1cccc(Cl)c1
IC50 (Beta-galactosidase [19]): 96 µM (inactive) | AC50 (INS1): 5.14 µM (active)

CO[C@H](CN(C)S(=O)(=O)c1cccc(Cl)c1)[C@@H](C)CN([C@H](C)CO)S(=O)(=O)c1ccc(Cl)cc1
AbsAC35 [20]: 36.95 µM | AbsAC35 [21]: 104.79 µM

Cn1c(-c2ccc3c(c2)OCO3)cnc1N
AC50 [22]: 83.7 µM (active)

Cc1ccc(N/C(S)=C(\C#N)c2nc3ccccc3s2)cc1
IC50 [23]: 1.49 µM (active)

COc1ccc(Nc2ccccc2N)cc1
IC50 (cells [24]): 1.41 µM (active) | IC50 (Nonstructural protein 1): 42.8 µM (active) | IC50 [25]: 8.32 µM (active) | CC50 [26]: 38.1 µM (active)

Reference: ChEMBL document CHEMBL1201862, “PubChem BioAssay data set” (2004)
